Holding throughout (type): functional
Test [1] is described as follows: Cytotoxicity against human BC1 cells. As to conditions: read-out: ED50 (the source's name).
Another test has as its system Lu1. Nature of the test: Cytotoxicity against human Lu1 cells. The conditions noted are these: read-out: ED50 (the source's name).
In another test the test system is SK-N-SH. Briefly: Cytotoxicity against human SK-N-SH cells. The conditions noted are these: read-out: ED50 (the source's name).
Another test concerns LNCaP. Nature of the test: Cytotoxicity against human LNCAP cells. As to conditions: read-out: ED50 (the source's name).
Test [2] concerns KB. Briefly: Cytotoxicity against human multidrug resistant KB cells in presence of vinblastine. As to conditions: read-out: ED50 (the source's name).
Test [3] deals with KB. Nature of the test: Cytotoxicity against human multidrug resistant KB cells in absence of vinblastine. The conditions noted are these: read-out: ED50 (the source's name).
A further test deals with M109. Briefly: Cytotoxicity against mouse M109 cells. The conditions noted are these: read-out: ED50 (the source's name).
Another test deals with SW626. Nature of the test: Cytotoxicity against human SW626 cells. The conditions noted are these: read-out: ED50 (the source's name).
The subject of a further test is Col2. Nature of the test: Cytotoxicity against human Col2 cells. As to conditions: read-out: ED50 (the source's name).
The test system of test [4] is KB. Nature of the test: Cytotoxicity against human KB cells. The conditions noted are these: read-out: ED50 (the source's name).
In a further test the test system is L1210. Briefly: In vivo antitumor activity against mouse L1210 cells assessed as increase in life span at 2 mg/kg.
For the next test, the system named is P388. Briefly: In vivo antitumor activity against mouse P388 cells assessed as increase in life span at 2 mg/kg.

In brackets after ≈: the same amount, converted by molar mass.

Take `CC[C@H]1CN2CCc3cc(OC)c(OC)cc3[C@@H]2C[C@@H]1Cc1nccc2c1[nH]c1ccc(O)cc12`: the EC50 in test [1] amounted to 3.9 µg/mL (≈ 8.27 µM); with Lu1, 3.6 µg/mL (≈ 7.63 µM); in the test with SK-N-SH it was 4 µg/mL (≈ 8.48 µM); with LNCaP, 6.8 µg/mL (≈ 14.4 µM); in the test with KB [2], 9 µg/mL; with KB [3], 8.8 µg/mL (≈ 18.7 µM). The EC50 in the test on M109 is 4.4 µg/mL (≈ 9.33 µM); in the test with SW626, 6.1 µg/mL (≈ 12.9 µM); in the test with Col2 it was 2.8 µg/mL (≈ 5.94 µM); in the test on KB [4], 2.2 µg/mL (≈ 4.66 µM).
As for `CC[C@H]1CN2CCc3cc(OC)c(OC)cc3[C@@H]2C[C@@H]1CC1=NCCc2cc(O)c(OC)cc21` [PSYCHOTRINE], the EC50 worked out at 3.4 µg/mL (≈ 7.32 µM) in test [1]; 5.7 µg/mL (≈ 12.3 µM) in the test on Lu1; 4 µg/mL (≈ 8.61 µM) in the test with SK-N-SH; 2.3 µg/mL (≈ 4.95 µM) in the test on LNCaP; 9 µg/mL in the test on KB [2]; 9.4 µg/mL (≈ 20.2 µM) in the test on KB [3]. Further, the EC50 with M109 amounted to 9 µg/mL (≈ 19.4 µM); in the test with SW626, 13.3 µg/mL (≈ 28.6 µM); in the test with Col2, 4.5 µg/mL (≈ 9.69 µM); in the test with KB [4], 2.8 µg/mL (≈ 6.03 µM).
Turning to `CC[C@H]1CN2CCc3cc(OC)c(OC)cc3[C@@H]2C[C@@H]1C[C@H]1NCCc2c1[nH]c1ccc(O)cc21` [TUBULOSINE], the EC50 in test [1] is 0.1 µg/mL (≈ 0.21 µM); in the test on Lu1 it was < 0.001 µg/mL; in the test on SK-N-SH it was 0.1 µg/mL (≈ 0.21 µM); with LNCaP, < 0.16 µg/mL; with KB [2], 0.1 µg/mL; in the test on KB [3], 0.1 µg/mL (≈ 0.21 µM). Moreover, the EC50 in the test with M109 was 0.1 µg/mL (≈ 0.21 µM); in the test on SW626, 0.22 µg/mL (≈ 0.463 µM); in the test on Col2, 0.05 µg/mL (≈ 0.105 µM); in the test on KB [4], < 0.16 µg/mL. Moreover, the Activity in the test with L1210 came out at 30%; in the test with P388, 80%.

Values taken from ChEMBL document CHEMBL1144119, “1',2',3',4'-tetradehydrotubulosine, a cytotoxic alkaloid from Pogonopus speciosus” (1999).
